Measured values published in patent US11103488B2, “Methods of treating autoimmune, respiratory and inflammatory disorders by inhalation of roflumilast N-oxide” (Incozen Therapeutics Pvt. Ltd., priority 2013, dated 2021).
Like-named read-outs stand apart in the source and are kept apart here.

Columns and labels:
[1] = Lung microsome metabolic stability, rat; format: in vitro ADME; settings: rat lung microsomes, 1 μM test item, 60 minutes, NADPH
Description: (§1) Metabolic stability studies were conducted using rat, dog and human lung microsomes. The protocol for the studies with rat, dog, and human lung microsomes (from Xenotech, USA) is provided below.
(§2) 0.4 mg protein was preincubated with 2 mM NADPH (cofactor) in phosphate buffer (pH˜7.4) for 15 minutes at […] and then added with 1 μM test item and incubated further for 60 minutes in triplicate. The reaction mixture was terminated with methanol containing an internal standard and centrifuged further to analyze the test item remaining in the supernatant by LC-MS/MS. The percent parent compound remaining was calculated in comparison with similar samples terminated at 0 minutes.

macrophage infiltration = test: Acute cigarette smoke induced cell infiltration, macrophages; format: in vivo, female Balb/c mice; settings: for Percent inhibition in macrophage infiltration: intranasal, day 1 to day 4
Description: Animals were acclimatized for seven days prior to the start of the experiment. The animals were randomly distributed to various groups based on their body weight. For oral administration of roflumilast and for intranasal administration of roflumilast N-oxide, roflumilast or roflumilast N-oxide were prepared as a suspension in a suitable vehicle. On day 1, mice were administered roflumilast N-oxide or roflumilast and after 1 hour, the animals were placed in a whole body exposure box. On day 1 and day 2, the mice were exposed to the mainstream smoke of 6 cigarettes, and 8 cigarettes on day 3 and day 4. Exposure to the smoke of each cigarette lasted for 10 minutes (cigarettes were completely burned in the first two minutes and followed by an air flow with animal ventilator, then 20 minutes exposure to fresh room air). After every second cigarette an additional break of 20 minutes with exposure to fresh room air was conducted. Control animals were exposed to room air chamber. From day 1 to day 4, the animals were administered roflumilast N-oxide or roflumilast. On day 5, 24 hours after the last cigarette smoke (CS) exposure, the animals were exsanguinated under anaesthesia, the trachea were cannulated and the lungs were lavaged with 0.5-ml aliquots of heparinised PBS (1 unit/ml) four times through tracheal cannula (total volume 2 ml). Bronchioalveolar (BAL) collected was stored at 2-8° C. until assayed for total cell and differential leukocyte count. BAL fluid was centrifuged (500×g for 10 minutes) and the resulting cell pellet was resuspended in 0.5 ml of heparinised saline. The total number of white blood cells was determined in BAL fluid and adjusted to 1×10^6 cell/ml. Differential cell count was calculated manually by diff-quick staining. Forty microliters of the cell suspension was centrifuged using cytospin 3 to prepare a cell smear. The cell smear was stained with a blood staining solution for differentiation and microscopically observed to identify cell type according to their morphological characteristics. The number of each cell type among 300 white blood cells in the cell smear were determined and expressed as a percentage, and the number of neutrophils and macrophages in each BAL fluid were calculated.
Roflumilast and roflumilast N-oxide as a suspension in polysorbate 80 (1% v/v) and methyl cellulose (MC) (0.5% w/v) were used for oral and intranasal administration respectively.

[2] = Pulmonary kinetics by intratracheal route, single dose; format: in vivo, Wistar rats; settings: single dose 1 mg/kg IT
Description: (§3) Male and female Wistar rats were weighed and randomized for groups for various time points. Roflumilast N-oxide was prepared as a suspension in a suitable vehicle for intratracheal administration. For intratracheal dosing, animals were anesthetized with ketamine (50 mg/kg; i.p.) and roflumilast N-oxide was administered via an Intratracheal Microsprayer® Aerosolizer for Rat with a 0.5 ml glass syringe (Model IA-1B-R-GL500) (Penn Century, US). A volume level of 0.5 ml/kg was administered into the airway system of the rat at a dose of 1.0 mg/kg for the single dose and multiple dose study. The animals were kept under normal regular diet conditions and rat chew diet was provided ad libitum throughout the study. The blood and lung samples (all collections each of 150 μl from each animal) were collected according to the sampling schedule. Blood samples were collected from orbital sinus into the microfuge tubes containing dipotassium EDTA as an anticoagulant. Blood samples were centrifuged immediately with a speed of 1000 g for 10 minutes at 4° C. and separated plasma samples were frozen at below −80° C. and stored until analysis. The plasma and lung concentrations of roflumilast N-oxide in all samples were analyzed by LC-MS/MS (using X-Calibur 2.0.7 software) as per the established method. The samples below the lower limit of quantification (LOQ) were mentioned as (BLQ) below level of quantification in raw data and the results were tabulated accordingly. Pharmacokinetic parameters Cmax, AUC0-t, AUC0-∞, Tmax, t1/2, Kel, VZ, and CLZ were estimated for the above concentrations using WinNonlin (Phoenix 6.1 software) and the results were tabulated. Pharmacokinetic parameters in plasma were calculated from concentration data as ng/ml. Cmax and AUC values were reported in terms of ng/ml and ng·h/ml, respectively.
(§4) Pharmacokinetic parameters in the lungs were calculated from concentration data as ng/g. Cmax and AUC values were reported in terms of ng/g and ng·h/g, respectively. The lung to plasma concentration ratio was calculated by assuming equal to 1 the plasma density. The time-mean plasma concentration plots for roflumilast N-oxide were done using Graph pad Prism 5.02 software.

[3] = Lung microsome metabolic stability, dog; format: in vitro ADME; settings: dog lung microsomes, 1 μM test item, 60 minutes, NADPH
Description: as §1, §2

[4] = Pulmonary kinetics by intratracheal route, multiple dose (7 days); format: in vivo, Wistar rats; settings: 1 mg/kg IT for 7 days; for Tmax / half-life / AUC(0-inf) / AUC(0-t) / Cmax: 1 mg/kg
Description: as §3, §4

[5] = 14-day repeat dose safety study; format: in vivo, Wistar Rats; settings: Intratracheal, 1000 ug/kg/day, 14 days
Description: In order to determine the safety of roflumilast N-oxide by inhalation compared to roflumilast by oral administration, a 7- and 14-day repeat dose safety study was conducted according to the protocol given in Table 5 below.

For `O=C(Nc1c(Cl)c[n+]([O-])cc1Cl)c1ccc(OC(F)F)c(OCC2CC2)c1` [Roflumilast N-oxide], the “Percent Parent Compound Remaining, Rat” value [1] was 100.0%, the ED50 (macrophage infiltration; Mus musculus, Macrophage, inhaled or nasal, intranasal administration, read-out: 50% inhibition (ED50) dose, macrophage infiltration) was 0.049 mg/kg and the “Percent inhibition in macrophage infiltration” value (“Percent inhibition” below) (macrophage infiltration; 0.003 mg/kg) was 50.68%. The “Percent inhibition” value (macrophage infiltration; 0.03 mg/kg) was 55.10%, the “Percent inhibition” value (macrophage infiltration; 0.3 mg/kg) was 62.79% and the “Percent inhibition” value (macrophage infiltration; 3 mg/kg) was 63.35%. It also gave a Tmax ([2]; both sexes, Wistar, rat, inhaled or intranasal, lung, read-out: Tmax, Lung, N-Oxide) of 15 min, a half-life ([2]; both sexes, Wistar, rat, inhaled or intranasal, lung, read-out: t1/2, Lung, N-Oxide (converted)) of 152 min and an AUC(0-t) ([2]; both sexes, Wistar, rat, inhaled or intranasal, plasma, read-out: AUC0-t, Plasma, N-Oxide) of 4160 ng·h/mL. It also gave a Cmax ([2]; both sexes, Wistar, rat, inhaled or intranasal, plasma, read-out: Cmax, Plasma, N-Oxide) of 530 ng/mL, a Tmax ([2]; both sexes, Wistar, rat, inhaled or intranasal, plasma, read-out: Tmax, Plasma, N-Oxide) of 15 min and a half-life ([2]; both sexes, Wistar, rat, inhaled or intranasal, plasma, read-out: t1/2, Plasma, N-Oxide (converted)) of 326 min. For the same molecule, the “AUC0-inf, Lung, N-Oxide” value ([2]; lung) was 47960 ng·h/g, the “AUC0-t, Lung, N-Oxide” value ([2]; lung) was 47880 ng·h/g and the “Cmax, Lung, N-Oxide” value ([2]; lung) was 26350 ng/g. The “Percent Parent Compound Remaining, Dog” value [3] was 98.3%, the “AUC0-inf, Lung, Day-1, N-Oxide” value ([4]; lung, Day-1) was 47.96 µg·h/g and the “AUC0-t, Lung, Day-1, N-Oxide” value ([4]; lung, Day-1) was 47.88 µg·h/g. The “Cmax, Lung, Day-1, N-Oxide” value ([4]; lung, Day-1) was 26.35 µg/g, the “AUC0-inf, Lung, Day-7, N-Oxide” value ([4]; lung, Day-7) was 18.04 µg·h/g and the “AUC0-t, Lung, Day-7, N-Oxide” value ([4]; lung, Day-7) was 17.96 µg·h/g. For the same molecule, the “AUCtau, Lung, Day-7, N-Oxide” value ([4]; lung, Day-7) was 18.51 µg·h/g, the “Cavg, Lung, Day-7, N-Oxide” value ([4]; lung, Day-7) was 0.77 µg/g and the “Cmax, Lung, Day-7, N-Oxide” value ([4]; lung, Day-7) was 23.15 µg/g. The “Cmin, Lung, Day-7, N-Oxide” value ([4]; lung, Day-7) was 0.00 µg/g, the “Cavg, Plasma, Day-7, N-Oxide” value ([4]; plasma, Day-7) was 120 ng/mL and the “Cmin, Plasma, Day-7, N-Oxide” value ([4]; plasma, Day-7) was 0 ng/mL. It also gave an AUC ([4]; both sexes, Wistar, rat, inhaled or intranasal, plasma, Day-7, read-out: AUCtau, Plasma, Day-7, N-Oxide) of 2810 ng·h/mL, a Tmax ([4]; both sexes, Wistar, rat, lung, inhaled or intranasal, lung, Day-1, read-out: Tmax, Lung, Day-1, N-Oxide) of 15 min and a half-life ([4]; both sexes, Wistar, rat, lung, inhaled or intranasal, lung, Day-1, read-out: t1/2, Lung, Day-1, N-Oxide (converted)) of 152 min. For the same molecule, the Tmax ([4]; both sexes, Wistar, rat, lung, inhaled or intranasal, lung, Day-7, read-out: Tmax, Lung, Day-7, N-Oxide) was 15 min, the half-life ([4]; both sexes, Wistar, rat, lung, inhaled or intranasal, lung, Day-7, read-out: t1/2, Lung, Day-7, N-Oxide (converted)) was 48.6 min and the AUC(0-inf) ([4]; both sexes, Wistar, rat, plasma, inhaled or intranasal, plasma, Day-1, read-out: AUC0-inf, Plasma, Day-1, N-Oxide) was 4350 ng·h/mL. It also gave an AUC(0-t) ([4]; both sexes, Wistar, rat, plasma, inhaled or intranasal, plasma, Day-1, read-out: AUC0-t, Plasma, Day-1, N-Oxide) of 4160 ng·h/mL, a Cmax ([4]; both sexes, Wistar, rat, plasma, inhaled or intranasal, plasma, Day-1, read-out: Cmax, Plasma, Day-1, N-Oxide) of 530 ng/mL and a Tmax ([4]; both sexes, Wistar, rat, plasma, inhaled or intranasal, plasma, Day-1, read-out: Tmax, Plasma, Day-1, N-Oxide) of 15 min. For the same molecule, the half-life ([4]; both sexes, Wistar, rat, plasma, inhaled or intranasal, plasma, Day-1, read-out: t1/2, Plasma, Day-1, N-Oxide (converted)) was 326 min, the AUC(0-inf) ([4]; both sexes, Wistar, rat, plasma, inhaled or intranasal, plasma, Day-7, read-out: AUC0-inf, Plasma, Day-7, N-Oxide) was 2390 ng·h/mL and the AUC(0-t) ([4]; both sexes, Wistar, rat, plasma, inhaled or intranasal, plasma, Day-7, read-out: AUC0-t, Plasma, Day-7, N-Oxide) was 2250 ng·h/mL. It also gave a Cmax ([4]; both sexes, Wistar, rat, plasma, inhaled or intranasal, plasma, Day-7, read-out: Cmax, Plasma, Day-7, N-Oxide) of 560 ng/mL, a Tmax ([4]; both sexes, Wistar, rat, plasma, inhaled or intranasal, plasma, Day-7, read-out: Tmax, Plasma, Day-7, N-Oxide) of 60 min and a half-life ([4]; both sexes, Wistar, rat, plasma, inhaled or intranasal, plasma, Day-7, read-out: t1/2, Plasma, Day-7, N-Oxide (converted)) of 91.8 min. For the same molecule, the MORTALITY [5] was “No Mortality”.
